Experimental data taken from BindingDB's records for doi:10.1021/ml5002757 (Therachem Research Medilab (India), 2014).

Target: Free fatty acid receptor 1 (Homo sapiens, UniProt O14842)
Test: Modulation activity at human GPR40 expressed in HEK293 cells by IP-1 detection based HTRF assay

Chain of Free fatty acid receptor 1 (O14842 whole entry): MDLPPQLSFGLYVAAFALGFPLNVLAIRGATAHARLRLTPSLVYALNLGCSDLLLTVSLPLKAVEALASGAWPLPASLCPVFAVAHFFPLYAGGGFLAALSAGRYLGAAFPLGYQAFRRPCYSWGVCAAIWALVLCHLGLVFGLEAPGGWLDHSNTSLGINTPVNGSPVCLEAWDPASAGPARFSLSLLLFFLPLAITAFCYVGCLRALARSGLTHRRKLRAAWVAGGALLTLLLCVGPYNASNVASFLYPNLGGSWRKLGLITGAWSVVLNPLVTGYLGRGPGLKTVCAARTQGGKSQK

Structure (SMILES): Cc1ccccc1Oc1ccc(N2N=C(C#N)CC2CC(=O)O)cc1 (stereo unspecified)
- EC50: 560 nM
